Assay results taken from a melting point compilation (Tetko et al.; mined from patent text by program, amines drawn as free bases though some values may be those of a salt).

Compound	melting point [°C]
NS(=O)(=O)c1ccc(-c2c(-c3ccccc3)noc2C(=O)O)cc1	300
COc1ccc(C(=O)CC(O)C(=O)O)cc1OC (stereo unspecified)	106 to 108
CNc1nc2ccccc2n(-c2ccc(Cl)cc2)c1=O	217 to 220
CS(=O)CC(=NC1CCCCC1)c1cc2ccccc2cc1O (stereo unspecified)	132 to 136
CCOP(=O)(CC(=O)Nc1cc2c(Nc3ccc(OCc4cccc(Cl)c4)c(Cl)c3)ncnc2cn1)OCC	106 to 109
CCCc1nnc(/C=C/c2cn(Cc3ccccc3)nc2OCc2ccc(OCc3nc(-c4ccco4)oc3C)c(OC)c2)o1	146 to 147
Cc1c(NC(=O)CCCC(=O)c2ccc(Cl)cc2)ccc2cc(CN3CCCC3)cnc12	173 to 174
CCOC=C1C=C(C(C)(C)C)C(=O)C(C(C)(C)C)=C1	114 to 117
COc1cccc(-c2ccc3ccc(NC(=O)c4cccc(Br)c4)nc3n2)c1	104
Cc1nccn1-c1nc(-c2ccc(Cl)cc2)c(CCCn2cccn2)o1	129 to 130
Nc1nc(NCc2ccccc2)nc(-c2cc(Cl)ccc2Cl)n1	200 to 201
CC(=O)CCC(=O)c1ccc(S(C)(=O)=O)cc1	132 to 133
Cc1cc2nccn2nc1OCC(C)(C)CCS(N)(=O)=O	161 to 162
CC(C)(C)n1ncc(OCc2ccc(OC(F)(F)C(F)OC(F)(F)F)cc2)c(Cl)c1=O (stereo unspecified)	68 to 69
C[C@@H]1OC(P(=O)(O)O)=CC[C@@]1(O)n1cnc2c(N)ncnc21	151
Cc1cccc(C(=O)C2CC2)c1N	64
O=C(CCCNc1c(C(=O)O)[nH]c2cc(Cl)cc(Cl)c12)c1ccccc1	254 to 256
CCCCCC(C#Cc1ccc(C(=O)O)cc1)c1ccc2c(c1)C(C)(C)CCC2(C)C (racemic)	115 to 116
CCCCCCCCCCCCCCCCOCCO	42 to 44
O=C(Cc1ccccc1)c1ccc(OCCN2CCCC2)cc1	77 to 78
NC(C(=O)CCC(=O)O)c1ccc(Nc2n[nH]c3ncnc(Nc4cccc(Cl)c4)c23)cc1 (stereo unspecified)	205 to 207
c1cn(Cc2ccc3c(c2)Cc2c(-c4ccsc4)n[nH]c2-3)nn1	250 to 254
CC(=O)N1CCN(c2cccc(F)n2)CC1	102 to 103
Cc1nc(-c2ccc(-c3cccs3)cc2)c(-c2ccc(S(C)(=O)=O)cc2)o1	183 to 185
COC(=O)c1ccc(NC(=N)Nc2nc(-c3ccccc3)cs2)cc1	189 to 191
Nc1nc(C2CCN(C(=O)Nc3ccccc3)CC2)c2ccccc2n1	178 to 180

Compound	melting point [°C]
CCCc1c(OC(=O)OCC)ccc2oc(Cc3ccc(OC)cc3)c(C)c12	51 to 53
COC(=O)CCCC(=O)c1ccc(O)c(O)c1	104 to 106
CCCCCCCCCCCCCCCCCCOCCO	39 to 41
COc1cc(OC)c2c(c1)OC(C)(C)CC2=O	104 to 105
CCc1cc2c(cc1CC)C(=O)CCC2	93
CC(C)(CO)N1CC(COc2cccc(Cl)c2)OC1=O (stereo unspecified)	81 to 82
CN(CC(O)CN(C)S(=O)(=O)C(F)(F)C(F)(F)C(F)(F)C(F)(F)F)S(=O)(=O)C(F)(F)F (stereo unspecified)	79 to 85
COc1ccc2c3c(c(=O)oc2c1)CN(Cc1ccnc2ccccc12)CC3	186 to 188
Cc1cc(-c2c(Cl)ccc(C(=O)c3cnn(C)c3O)c2Cl)on1	143 to 144
CN1CCC(C(=O)Nc2cccc3nc(NC4CCc5ccccc54)ccc23)CC1 (stereo unspecified)	197
COc1cn(Cc2ccc(OC)c(OC)c2)c(=O)o1	99.5 to 102
N=C(N)c1ccc(-c2ccc(-n3cc(CCC(=O)O)c4ccccc43)nn2)cc1	288 to 292
CCC1(CO)CS(=O)(=O)c2ccccc2C(c2ccccc2)=N1 (stereo unspecified)	170 to 171
O=C(O)C=CC(=O)c1ccc(Oc2cccc(Cl)c2)cc1	110 to 111
Cc1cccc2c1C=Cc1ccccc1C2O (stereo unspecified)	114 to 116
COc1cc(C)c(C(=O)c2c(Cl)cnc(Cl)c2Cl)c(OC)c1OC	60 to 61
CSc1nn2c(N)cc(C)nc2c1S(=O)(=O)c1ccc(C(C)(C)C)cc1	> 230
CC(=Cc1ccc(C(C)C)cc1)c1ccc2c(c1)C(C)(C)CCC2(C)C	86 to 87
NC(=O)c1cc2c3ccccc3[nH]c(=O)n2n1	355 to 358
CCOC(=O)c1cc2c(C=O)cc3c4ccccc4ccc3c2o1	209 to 212
COc1cc(Cl)ccc1-c1nc2cc3c(cc2[nH]1)C(C)(C)CC(=O)N3	300 to 303
Cn1cnc2cc(NC(=O)c3cc4cc(F)cnc4n3Cc3cccc(F)c3)ccc21	266 to 268
c1cncc(-c2ccnc3nc(N4CCNCC4)nn23)c1	156 to 158
COc1ccc(CN(C)CCc2ccc(NC(=O)c3cccc4c(=O)c5c(OC)ccc(OC)c5[nH]c34)cc2)cc1OC	196
COc1cc(Nc2c(C#N)cnc3cc(Br)ccc23)c(Cl)cc1C	215 to 217
COc1cc(OCc2ccc(C(=O)N(C)C3CCCCC3)cc2)cc(OC)c1OC	116

Compound	melting point [°C]
CS(=O)(=O)c1ccc(-c2cc(C(F)F)cn2-c2ccc(F)cc2)cc1	98 to 100
Cc1nc2ccc3c(c2o1)C(CCNC(=O)C1CC1)CC3 (stereo unspecified)	134 to 137
CC(C)(C)NOC(=O)c1n[nH]c2c(=O)[nH]c3cc(Cl)ccc3c(=O)c12	258
SC12CC3CC(CC(C3)C1)C2	101 to 103
c1ccc(CCC2CCN(Cc3c[nH]c4ncccc34)CC2)cc1	162 to 163
CC(C)(C)C(=O)COc1ccc(Cl)cn1	68 to 69.5
CN1CCN(CC(=O)Nc2cccc3c2C(=O)c2c-3n[nH]c2-c2ccc(N3CCOCC3)cc2)CC1	258
CC1(C)CCC(Cc2ccc(Cl)cc2)=C(O)C1=O	80 to 82
Cc1c(-c2ccncc2)[nH]c2c1C(=O)CC(c1ccccc1)C2 (stereo unspecified)	256 to 257
CC(C)S(=O)(=O)c1ccc2c(c1)nc(CC(C)(C)C)n2CCN1CCOCC1	151
CC(=O)Nc1nc2ccc(Cl)nc2c(=O)[nH]1	317 to 319
Cc1ccc(S(=O)(=O)Nc2cc(CC(C)C)c([N+](=O)[O-])cc2Br)cc1	170
CC(=O)NC1CCNC(c2ncccc2Cl)C1 (stereo unspecified)	118 to 120
O=C1CCc2ccc(OCCCCN3CCCN(c4cccc(Cl)c4Cl)CC3)cc2N1	88 to 89
C(#Cc1cccc2ccccc12)c1ccccc1	51 to 53
COc1ccc(-c2cnc3c(-c4cc(-c5ccccc5)cs4)cnn3c2O)cc1Br	> 300
Cc1nc(C(=O)NCCO[N+](=O)[O-])cs1	78 to 79
Cc1cc(-c2nc3c(C)cc(Cl)nn3c2-c2ccnc(N)c2)ccc1F	218 to 219
Cc1ccc2c(=O)cc(C#N)oc2c1	155 to 156
CNC(=O)c1cccc(Br)c1	126
O=Cc1cc(Br)c(O)c(OCc2ccccc2)c1	160 to 162
CC1(c2ccccc2)CCC(=O)C=C1C(=O)O (racemic)	206
CC(=O)NCC(O)(Cn1cncn1)c1ccc(Cl)cc1Cl (stereo unspecified)	178 to 179
CCC(=O)N1CCN(c2ccc(NC(=O)c3cc(=O)c4cc(F)cc(N5CCN(C)CC5)c4o3)cc2)CC1	244 to 245
CCOC(=O)c1cn(Cc2cnsn2)c2cc(F)c(F)cc2c1=O	198 to 201
COc1ccccc1Oc1c(NS(=O)(=O)c2cc(Cl)sc2Cl)nc(-c2ncccn2)nc1OCCOC(=O)Nc1ccccn1	194 to 197

Compound	melting point [°C]
O=C(C=Cc1c(-c2ccccc2)nn2ccccc12)N1CCCC[C@@H]1CCO	145 to 146
CC(C)(C)OC(=O)Nc1ccc(C#Cc2ccc(F)cc2F)cc1N	113 to 116
CCc1cn(C2CC(F)C(CO)O2)c(=O)[nH]c1=S (stereo unspecified)	139 to 140
COC(=O)c1cc([N+](=O)[O-])c(F)cc1F	78 to 80
CC(C)CN1C(=O)C2CC(c3ccc([N+](=O)[O-])cc3)(C2)C1=O	136 to 137
Cc1cccc(-c2nc(-c3ccc(F)cc3)sc2-c2ccnc(N)c2)c1	160 to 162
COc1cc2c(cc1OC)C(c1ccccc1N)=NN=C(C)C2	172 to 174
CN(Cc1ccc(CCC(=O)Nc2ccc(-c3ccc(Cl)cc3)cc2)cc1)C1CCOCC1	167 to 173
CCOC(=O)c1cc(OC)c(OCc2nc(C)c(C)nc2C)c(OC)c1	122 to 123
Oc1ccc(-c2ncc3ncc(-c4ccc(C(F)(F)F)cc4)cc3n2)cc1	203 to 204
O=C1c2c(-c3ccccc3)noc2CCC1CCCN1CCC(O)(c2ccc(Cl)cc2)CC1 (stereo unspecified)	147 to 148
CN1CCNC1=C[N+](=O)[O-]	142 to 144
O=C(O)C#CC(O)(c1ccc(OCc2ccc3ccccc3n2)cc1)c1ccc(OCc2ccc3ccccc3n2)cc1	169 to 172
NC(=O)N(O)CCNC(=O)c1ccc(Oc2ccc(Cl)cc2)o1	173 to 175
CCOC(=O)c1cc(C(C)=O)on1	67 to 68
COc1ccc(C(=O)c2ccc(C)cc2)cc1C	73 to 75
N#CN(c1ccccc1)c1nc(N(C#N)c2ccccc2)nc(N(C#N)c2ccccc2)n1	209 to 215
CC(C)(C)OC(=O)[C@H]1C[C@@H](S(=O)(=O)c2ccccc2)[C@@H](c2ccccc2)N1C(=O)CNC(=O)Nc1cccc(C(=O)OCc2ccccc2)c1 (racemic)	212
CC(=O)N1CCN(CCSc2ccnc(CSc3nc4ccccc4[nH]3)c2C)CC1	129 to 131
COc1cc(C2C3=C(COC3=O)Nc3ccc4nn[nH]c4c32)cc(OC)c1OC (stereo unspecified)	324 to 325
CCOC(=O)CN1C(=O)C(NC(=O)Nc2ccc(Cl)cc2)N=C(c2ccccc2F)c2ccccc21 (stereo unspecified)	253 to 254
COc1cc(-c2ncnc(OC)c2Cl)c(F)cc1Cl	142 to 143
CN(c1cc(Cl)ccc1C(=O)O)S(C)(=O)=O	161 to 164
